Assay results published in ChEMBL document CHEMBL1154514, “Synthesis and biological evaluation of N-mercaptoacylcysteine derivatives as leukotriene A4 hydrolase inhibitors” (Bioorg Med Chem Lett, 2009).

Tests used:
[1] = target: T1, Leukotriene A-4 hydrolase (Cavia porcellus, UniProt P19602); assay: Inhibition of LTA4 hydrolase in guinea pig lung assessed as inhibition of LTB4 production
T1 sequence (P19602 whole entry): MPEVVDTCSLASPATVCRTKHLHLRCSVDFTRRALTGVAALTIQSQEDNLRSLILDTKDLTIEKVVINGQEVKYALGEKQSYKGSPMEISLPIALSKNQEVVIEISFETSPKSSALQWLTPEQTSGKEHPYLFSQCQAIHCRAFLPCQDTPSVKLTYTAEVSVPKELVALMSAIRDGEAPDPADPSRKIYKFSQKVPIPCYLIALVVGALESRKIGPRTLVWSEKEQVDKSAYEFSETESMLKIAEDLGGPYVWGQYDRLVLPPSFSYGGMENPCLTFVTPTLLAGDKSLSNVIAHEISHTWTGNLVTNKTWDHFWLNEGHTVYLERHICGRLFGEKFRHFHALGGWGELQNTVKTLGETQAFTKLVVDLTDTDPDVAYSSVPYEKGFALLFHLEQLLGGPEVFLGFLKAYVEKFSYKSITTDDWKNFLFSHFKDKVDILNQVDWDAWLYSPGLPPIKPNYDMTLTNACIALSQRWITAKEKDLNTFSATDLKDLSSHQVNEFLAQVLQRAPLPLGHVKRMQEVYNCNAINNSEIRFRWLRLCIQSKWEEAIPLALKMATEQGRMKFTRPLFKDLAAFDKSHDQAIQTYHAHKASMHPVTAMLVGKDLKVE

[2] = target: Angiotensin-converting enzyme (Homo sapiens, UniProt P12821); assay: Inhibition of angiotensin-converting enzyme in whole blood by HPLC; type: tissue-based
Sequence of Angiotensin-converting enzyme (P12821 whole entry): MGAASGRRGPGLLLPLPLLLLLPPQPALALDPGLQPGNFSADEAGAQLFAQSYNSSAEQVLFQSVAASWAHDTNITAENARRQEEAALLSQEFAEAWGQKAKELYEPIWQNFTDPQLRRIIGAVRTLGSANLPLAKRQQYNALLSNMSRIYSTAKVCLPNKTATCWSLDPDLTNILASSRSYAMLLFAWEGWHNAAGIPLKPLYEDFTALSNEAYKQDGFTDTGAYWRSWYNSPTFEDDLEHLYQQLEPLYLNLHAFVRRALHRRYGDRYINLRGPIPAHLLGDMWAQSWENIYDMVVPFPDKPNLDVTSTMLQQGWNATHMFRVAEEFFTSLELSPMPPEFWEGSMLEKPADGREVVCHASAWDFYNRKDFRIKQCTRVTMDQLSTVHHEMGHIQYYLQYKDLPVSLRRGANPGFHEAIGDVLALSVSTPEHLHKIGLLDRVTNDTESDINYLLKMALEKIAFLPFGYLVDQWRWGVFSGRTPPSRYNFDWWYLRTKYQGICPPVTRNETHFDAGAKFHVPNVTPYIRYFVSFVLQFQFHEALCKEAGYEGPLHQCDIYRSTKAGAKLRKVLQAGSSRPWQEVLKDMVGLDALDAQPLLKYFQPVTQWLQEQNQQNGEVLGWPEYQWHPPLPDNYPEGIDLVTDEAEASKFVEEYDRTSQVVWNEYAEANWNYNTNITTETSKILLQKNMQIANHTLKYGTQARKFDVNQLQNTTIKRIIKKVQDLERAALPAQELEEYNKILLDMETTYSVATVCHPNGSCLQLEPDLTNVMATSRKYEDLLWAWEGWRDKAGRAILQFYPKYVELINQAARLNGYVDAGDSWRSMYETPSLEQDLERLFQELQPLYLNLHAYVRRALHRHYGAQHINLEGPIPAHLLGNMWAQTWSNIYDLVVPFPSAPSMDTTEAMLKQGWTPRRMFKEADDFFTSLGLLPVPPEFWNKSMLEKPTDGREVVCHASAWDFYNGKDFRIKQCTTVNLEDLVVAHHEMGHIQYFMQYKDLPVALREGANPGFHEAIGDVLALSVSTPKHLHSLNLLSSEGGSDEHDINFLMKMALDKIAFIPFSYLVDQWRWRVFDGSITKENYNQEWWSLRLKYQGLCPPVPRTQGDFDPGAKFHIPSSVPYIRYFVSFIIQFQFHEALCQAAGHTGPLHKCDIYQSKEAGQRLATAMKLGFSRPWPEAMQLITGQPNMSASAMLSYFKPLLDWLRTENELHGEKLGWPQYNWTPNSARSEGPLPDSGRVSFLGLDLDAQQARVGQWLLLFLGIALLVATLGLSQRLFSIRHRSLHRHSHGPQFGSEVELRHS

Collagenase 3 = Collagenase 3 (Homo sapiens, UniProt P45452); assay: Inhibition of type 3 collagenase
[3] = target: Aminopeptidase N (Homo sapiens) (UniProt P15144); assay: Inhibition of aminopeptidase M at 100 uM
Sequence of Aminopeptidase N (Homo sapiens) (P15144 whole entry): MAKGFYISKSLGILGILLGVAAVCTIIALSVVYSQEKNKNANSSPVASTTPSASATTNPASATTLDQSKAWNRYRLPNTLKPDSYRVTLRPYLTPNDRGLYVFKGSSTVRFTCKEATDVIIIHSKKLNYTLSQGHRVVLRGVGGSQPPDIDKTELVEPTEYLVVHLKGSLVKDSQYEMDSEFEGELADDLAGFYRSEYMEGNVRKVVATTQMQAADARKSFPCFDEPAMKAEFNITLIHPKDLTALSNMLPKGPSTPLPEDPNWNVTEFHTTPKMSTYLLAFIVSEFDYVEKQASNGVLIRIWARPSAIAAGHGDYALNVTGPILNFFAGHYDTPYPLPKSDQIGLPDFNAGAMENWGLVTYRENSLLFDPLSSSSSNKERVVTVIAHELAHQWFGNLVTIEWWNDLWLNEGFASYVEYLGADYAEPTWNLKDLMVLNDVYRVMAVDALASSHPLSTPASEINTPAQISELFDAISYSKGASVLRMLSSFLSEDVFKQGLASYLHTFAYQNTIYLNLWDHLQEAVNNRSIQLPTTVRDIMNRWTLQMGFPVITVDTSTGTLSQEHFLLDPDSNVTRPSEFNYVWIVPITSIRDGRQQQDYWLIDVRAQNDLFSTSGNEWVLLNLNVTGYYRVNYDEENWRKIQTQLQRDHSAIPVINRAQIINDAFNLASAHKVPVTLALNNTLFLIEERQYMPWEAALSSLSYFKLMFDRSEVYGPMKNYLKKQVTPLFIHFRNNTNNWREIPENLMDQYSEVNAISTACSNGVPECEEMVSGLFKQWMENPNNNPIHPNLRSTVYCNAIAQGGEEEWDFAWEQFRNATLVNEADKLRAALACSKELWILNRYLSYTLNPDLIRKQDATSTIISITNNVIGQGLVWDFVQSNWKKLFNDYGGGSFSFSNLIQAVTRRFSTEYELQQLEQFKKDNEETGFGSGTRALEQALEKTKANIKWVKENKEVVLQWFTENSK

[4] = target: T2, Interstitial collagenase (Homo sapiens) (UniProt P03956); assay: Inhibition of type 1 collagenase at 100 uM
T2 sequence (whole entry): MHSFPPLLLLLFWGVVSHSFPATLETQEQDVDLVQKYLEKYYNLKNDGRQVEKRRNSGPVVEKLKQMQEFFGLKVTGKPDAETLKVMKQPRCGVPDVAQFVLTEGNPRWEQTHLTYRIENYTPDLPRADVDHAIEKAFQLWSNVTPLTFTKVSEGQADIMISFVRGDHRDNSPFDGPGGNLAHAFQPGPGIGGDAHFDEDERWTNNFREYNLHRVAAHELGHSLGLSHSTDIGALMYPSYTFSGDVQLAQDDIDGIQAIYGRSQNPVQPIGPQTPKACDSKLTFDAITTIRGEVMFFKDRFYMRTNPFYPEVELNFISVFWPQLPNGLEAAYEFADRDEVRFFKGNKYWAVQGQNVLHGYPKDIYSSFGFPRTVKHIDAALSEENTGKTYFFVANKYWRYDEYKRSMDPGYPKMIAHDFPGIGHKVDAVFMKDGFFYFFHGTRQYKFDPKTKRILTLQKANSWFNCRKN

[5] = target: Neprilysin (Homo sapiens) (UniProt P08473); assay: Inhibition of endopeptidase 24.11 at 100 uM
Sequence of Neprilysin (Homo sapiens) (P08473 whole entry): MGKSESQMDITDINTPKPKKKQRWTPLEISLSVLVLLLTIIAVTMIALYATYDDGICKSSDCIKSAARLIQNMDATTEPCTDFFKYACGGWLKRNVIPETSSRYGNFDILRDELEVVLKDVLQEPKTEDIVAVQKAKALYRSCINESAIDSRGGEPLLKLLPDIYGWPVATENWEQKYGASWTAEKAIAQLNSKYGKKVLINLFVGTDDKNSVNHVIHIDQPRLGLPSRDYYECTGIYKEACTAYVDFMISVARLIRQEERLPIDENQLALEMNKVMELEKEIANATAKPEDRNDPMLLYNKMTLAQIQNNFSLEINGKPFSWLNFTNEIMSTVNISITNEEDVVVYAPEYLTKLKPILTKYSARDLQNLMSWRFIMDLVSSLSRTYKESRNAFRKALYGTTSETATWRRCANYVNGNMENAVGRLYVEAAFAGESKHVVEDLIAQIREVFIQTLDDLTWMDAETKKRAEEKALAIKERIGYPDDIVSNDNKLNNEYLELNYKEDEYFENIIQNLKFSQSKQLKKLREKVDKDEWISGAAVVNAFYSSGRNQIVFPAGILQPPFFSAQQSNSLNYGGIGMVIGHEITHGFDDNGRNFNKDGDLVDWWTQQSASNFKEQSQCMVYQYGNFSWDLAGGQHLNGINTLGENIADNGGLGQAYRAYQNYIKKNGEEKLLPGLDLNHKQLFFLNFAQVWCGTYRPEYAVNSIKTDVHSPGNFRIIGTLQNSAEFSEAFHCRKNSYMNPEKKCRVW

[6] = target: T3, Endothelin-converting enzyme 1 (Homo sapiens) (UniProt P42892); assay: Inhibition of endothelin-converting enzyme 1 at 100 uM
T3 sequence (whole entry): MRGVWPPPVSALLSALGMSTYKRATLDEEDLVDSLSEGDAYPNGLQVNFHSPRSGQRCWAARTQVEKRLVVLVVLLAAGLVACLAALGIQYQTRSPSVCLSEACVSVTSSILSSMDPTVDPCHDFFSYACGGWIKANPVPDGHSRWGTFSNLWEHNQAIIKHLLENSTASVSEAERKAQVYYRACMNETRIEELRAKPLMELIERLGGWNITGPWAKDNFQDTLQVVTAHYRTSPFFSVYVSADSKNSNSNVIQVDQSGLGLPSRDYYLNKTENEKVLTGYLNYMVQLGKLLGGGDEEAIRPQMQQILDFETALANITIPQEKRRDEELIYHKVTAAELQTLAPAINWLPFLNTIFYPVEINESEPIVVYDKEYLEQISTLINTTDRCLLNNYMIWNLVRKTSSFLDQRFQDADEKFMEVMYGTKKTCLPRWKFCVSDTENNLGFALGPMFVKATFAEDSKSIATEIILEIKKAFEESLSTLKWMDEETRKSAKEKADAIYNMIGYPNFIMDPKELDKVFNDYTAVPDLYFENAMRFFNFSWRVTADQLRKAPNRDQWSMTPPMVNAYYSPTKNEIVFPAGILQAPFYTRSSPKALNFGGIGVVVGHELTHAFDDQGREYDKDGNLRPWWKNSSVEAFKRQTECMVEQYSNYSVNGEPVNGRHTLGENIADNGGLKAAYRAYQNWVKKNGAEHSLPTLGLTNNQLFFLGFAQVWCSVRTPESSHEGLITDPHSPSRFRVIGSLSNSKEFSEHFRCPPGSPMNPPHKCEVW

| SMILES | IC50 ([1]; read-out: IC50) | IC50 [2] | IC50 ([1]; read-out: pIC50 (converted)) | also measured |
| --- | --- | --- | --- | --- |
| CN(C)c1ccc(CSC[C@H](NC(=O)CS)C(=O)O)cc1 | 470 nM | – | – | – |
| C[C@H](CS)C(=O)N[C@@H](CSCc1ccc([N+](=O)[O-])cc1)C(=O)O | 4900 nM | 320 nM | – | – |
| CC(C)c1ccc(C(C)(C)SC[C@H](NC(=O)[C@H](C)CS)C(=O)O)cc1 | 79 nM | 260 nM | – | – |
| CCc1ccc(CSC[C@H](NC(=O)[C@H](C)CS)C(=O)O)cc1 | – | 21 nM | 280 nM | – |
| COc1ccc(CSC[C@H](NC(=O)[C@H](C)CS)C(=O)O)cc1 | 2400 nM | 100 nM | 2400 nM | – |
| C[C@H](CS)C(=O)N[C@@H](CSCc1cccc(N(C)C)c1)C(=O)O | > 10000 nM | – | – | – |
| CCC(SC[C@H](NC(=O)[C@H](C)CS)C(=O)O)c1ccc(C(C)C)cc1 (stereo partly drawn) | – | 340 nM | – | – |
| C[C@H](CS)C(=O)N[C@@H](CCSCc1ccc(N(C)C)cc1)C(=O)O | > 10000 nM | – | – | – |
| CCCc1ccc(CSC[C@H](NC(=O)[C@H](C)CS)C(=O)O)cc1 | – | 210 nM | 72 nM | – |
| C[C@H](CS)C(=O)N[C@@H](CSCc1ccccc1)C(=O)O | > 10000 nM | 34 nM | – | – |
| CC(C)c1ccc(C(C)SC[C@H](NC(=O)[C@H](C)CS)C(=O)O)cc1 (stereo partly drawn) | – | 200 nM | – | – |
| C[C@H](CS)C(=O)N[C@@H](CSCc1ccc(N(C)C)cc1)C(=O)O | 270 nM | 520 nM | 270 nM | IC50 (Collagenase 3): Not Active; inhibition [3]: 42%; inhibition [4]: 3%; inhibition [5]: 16%; inhibition [6]: 8% |
| C[C@@H](S)C(=O)N[C@@H](CSCc1ccc(N(C)C)cc1)C(=O)O | > 10000 nM | – | – | – |
| CCN(CC)c1ccc(CSC[C@H](NC(=O)[C@H](C)CS)C(=O)O)cc1 | – | 4600 nM | – | – |
| C[C@H](CS)C(=O)N[C@@H](CSC(c1ccccc1)c1ccc(C2CCCCC2)cc1)C(=O)O (stereo partly drawn) | 210 nM | > 10000 nM | – | – |
| CN(C)c1ccc(CSC[C@H](NC(=O)CCCS)C(=O)O)cc1 | > 10000 nM | – | – | – |
| CC(C)c1ccc(C(SC[C@H](NC(=O)[C@H](C)CS)C(=O)O)C(C)C)cc1 (stereo partly drawn) | 520 nM | 430 nM | – | – |
| C[C@H](CS)C(=O)N[C@@H](CSCc1ccc(C(C)(C)C)cc1)C(=O)O | – | 130 nM | 24 nM | – |
| C[C@H](CS)C(=O)N[C@@H](CSCc1ccc(C2CCCCC2)cc1)C(=O)O | – | 4000 nM | 79 nM | – |
| CN(C)c1ccc(CSC[C@H](NC(=O)CCS)C(=O)O)cc1 | > 10000 nM | – | – | – |
| C[C@H](CS)C(=O)N[C@H](CSCc1ccc(N(C)C)cc1)C(=O)O | > 10000 nM | – | – | – |

| SMILES | IC50 ([1]; read-out: IC50) | IC50 [2] | IC50 ([1]; read-out: pIC50 (converted)) | also measured |
| --- | --- | --- | --- | --- |
| C[C@H](CS)C(=O)N[C@@H](CSCc1ccc(F)cc1)C(=O)O | > 10000 nM | 100 nM | > 10000 nM | – |
| C[C@H](CS)C(=O)N[C@@H](CSCc1ccc(Br)cc1)C(=O)O | 610 nM | 280 nM | 610 nM | – |
| C[C@H](CS)C(=O)N[C@@H](CSCc1ccc(I)cc1)C(=O)O | – | 140 nM | 15 nM | – |
| C[C@H](CS)C(=O)N[C@@H](CSCc1ccc(Oc2ccccc2)cc1)C(=O)O | 1700 nM | 370 nM | 1700 nM | – |
| CCOc1ccc(CSC[C@H](NC(=O)[C@H](C)CS)C(=O)O)cc1 | 640 nM | 340 nM | 640 nM | – |
| C[C@H](CS)C(=O)N[C@@H](CSCc1ccc(C#N)cc1)C(=O)O | 530 nM | 300 nM | – | – |
| C[C@H](CS)C(=O)N[C@@H](CSCc1ccc(OC(F)(F)F)cc1)C(=O)O | 400 nM | 260 nM | – | – |
| CCCC(SC[C@H](NC(=O)[C@H](C)CS)C(=O)O)c1ccc(C(C)C)cc1 (stereo partly drawn) | 180 nM | 420 nM | – | – |
| C[C@H](CS)C(=O)N[C@@H](CSCc1ccc(Cl)cc1)C(=O)O | 1700 nM | 250 nM | 1700 nM | – |
| C[C@H](CS)C(=O)N[C@@H](CSC(C)(C)c1ccc(C2CCCCC2)cc1)C(=O)O | – | 3000 nM | – | – |
| C[C@H](CS)C(=O)N[C@@H](CSCc1ccc(S(C)(=O)=O)cc1)C(=O)O | – | 300 nM | – | – |
| CC(C)c1ccc(C(SC[C@H](NC(=O)[C@H](C)CS)C(=O)O)c2ccccc2)cc1 (stereo partly drawn) | 91 nM | 1700 nM | – | – |
| CCCCC(SC[C@H](NC(=O)[C@H](C)CS)C(=O)O)c1ccc(C(C)C)cc1 (stereo partly drawn) | 510 nM | 3600 nM | – | – |
| CC(C)c1ccc(CSC[C@H](NC(=O)[C@H](C)CS)C(=O)O)cc1 | – | 300 nM | 200 nM | – |
| C[C@H](CS)C(=O)N[C@@H](CSCc1ccc(-c2ccccc2)cc1)C(=O)O | 600 nM | 280 nM | 79.4 nM | – |
| CSc1ccc(CSC[C@H](NC(=O)[C@H](C)CS)C(=O)O)cc1 | – | 300 nM | – | – |
| CC(S)CC(=O)N[C@@H](CSCc1ccc(N(C)C)cc1)C(=O)O (stereo partly drawn) | 7400 nM | – | – | – |
| Cc1ccc(CSC[C@H](NC(=O)[C@H](C)CS)C(=O)O)cc1 | 7200 nM | 240 nM | 7200 nM | – |
| C[C@H](CS)C(=O)N[C@@H](CSCc1ccc(C(F)(F)F)cc1)C(=O)O | – | 340 nM | 140 nM | – |
| C[C@H](S)C(=O)N[C@@H](CSCc1ccc(N(C)C)cc1)C(=O)O | > 10000 nM | – | – | – |
| CC(C)c1ccc(CSC(C)(C)[C@H](NC(=O)[C@H](C)CS)C(=O)O)cc1 | > 10000 nM | > 10000 nM | – | – |
